Results as given in US20090176857A1, “Use of Organic Compounds” (priority 2005, published 2009).

What was measured:
[1] = test system: women with IBS-C (Rome II criteria) and IBS-M (modification of Rome II); test: Randomized, double-blind, placebo-controlled, multicenter study, 4 weeks treatment, in patients with IBS-C and IBS-M; type: in vivo; settings: for days/week with no BMs (mean) / stool consistency score using a 7-patient scale (mean) / days/wk with straining (mean) / weekly BM frequency (mean): p<0.05
Protocol: Evaluation of the effect of tegaserod (T) on multiple symptoms in women with mixed/alternating bowel habits.
METHODS: A randomized, double-blind, placebo-controlled, multicenter study was performed in patients with IBS-C (based on Rome II criteria) and IBS-M (modification of Rome II). The primary efficacy variable was the patients' assessment of satisfactory relief over 4 weeks treatment with T 6 mg bid or Placebo (P). The proportion of patients reporting satisfactory relief of 4 weeks (75% rule) and improvement during each of the 4 weeks in individual IBS symptoms were also assessed. Treatments were compared using a generalized linear model with logit link.
RESULTS: 661 women were randomized (IBS-C 337; IBS-M 324). Baseline symptom assessment clearly distinguished between the IBS-C and the IBS-M cohorts. Statistically significant differences were found between the two cohorts in bowel movement (BM) frequency, stool consistency and straining. T provided statistically significant improvement in satisfactory relief of IBS symptoms over a 4-week treatment (odds ratio 1.75; 95% CI: 1.35, 2.25; p-value<0.001) for the IBS-C and IBS-M cohorts. […] Adverse event discontinuations were low (IBS-C: T 1.2% v P 2.4% and IBS-M: T 2.5% v P 3.6%). Most frequent AEs (with discontinuations) were diarrhea (1.1%), headache (0.6%) and nausea (0.3%). No clinically significant diarrhea or colitis of any type was reported.

[2] = test system: patients with constipation predominant and alternating forms of IBS; settings: literature abstract; cited from earlier work

[H]/N=C(/NCCCCC)N/N=C/c1c[nH]c2ccc(OC)cc12 [T, tegaserod]
satisfactory relief of IBS symptoms over a 4-week treatment, odds ratio ([1]; IBS-C and IBS-M cohorts, T 6 mg bid vs placebo, 95% CI: 1.35, 2.25, p<0.001): 1.75 | percentage of patients experiencing satisfactory relief of IBS symptoms (75% rule) ([1]; IBS-C cohort, T 6 mg bid, 4 weeks, placebo 28.9%, p=0.008): 43.3% | days/week with no BMs (mean) ([1]; IBS-C cohort, T 6 mg bid, placebo 2.18): 2.31 days/week | Adverse event discontinuations ([1]; IBS-C cohort, T 6 mg bid, placebo 2.4%): 1.2% | stool consistency score using a 7-patient scale (mean) ([1]; IBS-C cohort, T 6 mg bid, placebo 2.89): 3.53 | days/wk with straining (mean) ([1]; IBS-C cohort, T 6 mg bid, placebo 3.55): 3.08 days/wk | weekly BM frequency (mean) ([1]; IBS-C cohort, T 6 mg bid, placebo 6.06): 6.88 | percentage of patients experiencing satisfactory relief of IBS symptoms (75% rule) ([1]; IBS-M cohort, T 6 mg bid, 4 weeks, placebo 36.3%, p=0.010): 52.3% | days/week with no BMs (mean) ([1]; IBS-M cohort, T 6 mg bid, placebo 1.68): 1.39 days/week | days/wk with straining (mean) ([1]; IBS-M cohort, T 6 mg bid, placebo 2.87): 2.42 days/wk | stool consistency score using a 7-patient scale (mean) ([1]; IBS-M cohort, T 6 mg bid, placebo 3.49): 3.95 | Adverse event discontinuations ([1]; IBS-M cohort, T 6 mg bid, placebo 3.6%): 2.5% | weekly BM frequency (mean) ([1]; IBS-M cohort, T 6 mg bid, placebo 8.34): 9.78 | treating the overall symptoms of IBS in patients with a mixed or alternating bowel habit (conclusion) ([1]; IBS-M, T 6 mg bid, 4 weeks): effective and safe | Most frequent AEs (with discontinuations): diarrhea ([1]; treatment group not stated): 1.1% | Most frequent AEs (with discontinuations): headache ([1]; treatment group not stated): 0.6% | Most frequent AEs (with discontinuations): nausea ([1]; treatment group not stated): 0.3% | safety and tolerability profile [2]: favourable safety and tolerability profile
